Measured values from US20080234183A1, “Cell Penetrating Peptides” (priority 2002, published 2008).
Values belong to the substance of their own block, whether it stands above or below them.

Columns and labels:
great cardiac vein = test: Blood vessel contraction measurement; set-up: species or system porcine
Experimental: (§1) Dissected porcine hearts (260-390 g) were transported from local slaughterhouse to the laboratory in ice-cold Krebs-Henseleit solution (119 mM NaCl, 23.8 mM NaHCO3, 3 mM KCl, 1.14 mM NaH2PO4, 1.63 mM CaCl2, and 16.5 mM glucose). Left anterior descending coronary artery and great cardiac vein were isolated. Part of each blood vessel was used immediately after Isolation for contraction assays while part of it was kept frozen in liquid nitrogen for the membrane preparation. In some experiments blood vessels in which endothelium was mechanically removed were used. The same procedure was used also for the preparation of human umbilical blood vessels; umbilical cords were obtained from Obstetric Clinic of Ljubljana Clinical Center, Slovenia.
(§2) The measurements were performed as already described (20). Rings (5 mm wide) of blood vessels were cut and mounted into 10 ml tissue chamber filled with Krebs-Henseleit solution (37° C.; pH=7.4) which was oxygenated with the mixture of ^95% O2 and 5% CO2. Initial tension of 50 mN was applied and after equilibration 30 mM KCl was added to obtain stable Isometric contraction. The presence of endothelium was verified with substance P. After washing out of KCl and substance P and after the equilibration of the system was restored, test peptide was added into the tissue chamber and blood vessel contraction was recorded.

Go = target: T1, Go (Homo sapiens, UniProt P09471); test: GTPase activity of Sf9 membranes overexpressing G-proteins; format: biochemical; settings: 100 μM
T1 construct: made in house; host or cells: Sf9 insect cells (baculovirus); membranes used

[1] = tested on: G-proteins from blood vessel membranes; test: Rate of GTPγS binding to blood vessel membranes; format: biochemical; settings: membranes from porcine left anterior descending coronary artery
Experimental: Frozen pieces of blood vessels were mechanically pulverized. Subsequently membranes were obtained according to the protocol of McKenzie (McKenzie, F. R. Signal Transduction (Milliqan, E., Ed.), Oxford University Press, Oxford, N.Y., Tokyo. (1992)) with minor modifications. Until used, they were kept frozen in the concentration of 1-2 mg protein/ml as determined by the method of Lowry (Lowry, O. H., Rosenbrough, N.Y., Farr, A. L. & Randall, R. J. J. Biol. Chem. 193, 265-275 (1951)). The same procedure (with the exception of pulverization of tissue) was used also for the preparation of membranes from Sf9 cells which overexpressed the G-proteins of different types; protein concentrations of these membrane preparations were between 0.2 and 0.4 mg/ml.
The binding to G-proteins from blood vessel membranes was followed as described by McKenzie (McKenzie, F. R. Signal Transduction (Milligan, E., Ed.), Oxford University Press, Oxford, N.Y., Tokyo. (1992)). Briefly, the membranes (final protein concentration in the assay mixture was 0.05 mg/ml) were incubated for 3 min in the absence and presence of peptides in different concentrations with 0.5 nM [^35S]GTPγS at 13° C. […] The remaining radioactivity contained in the filters was determined in the LKB 1214 Rackbeta liquid scintillation counter. Blank values were determined by replacing the membrane preparations with buffer.

[2] = tested on: porcine left anterior descending coronary artery; test: Blood vessel contraction measurement
Experimental: as §1, §2

human umbilical artery = test: Blood vessel contraction measurement
Experimental: as §1, §2

G11 = target: T2, G11 (Homo sapiens, UniProt P29992); test: GTPase activity of Sf9 membranes overexpressing G-proteins; format: biochemical; settings: 100 μM
T2 construct: made in house; host or cells: Sf9 insect cells (baculovirus); membranes used
T2 sequence (P29992 1-359): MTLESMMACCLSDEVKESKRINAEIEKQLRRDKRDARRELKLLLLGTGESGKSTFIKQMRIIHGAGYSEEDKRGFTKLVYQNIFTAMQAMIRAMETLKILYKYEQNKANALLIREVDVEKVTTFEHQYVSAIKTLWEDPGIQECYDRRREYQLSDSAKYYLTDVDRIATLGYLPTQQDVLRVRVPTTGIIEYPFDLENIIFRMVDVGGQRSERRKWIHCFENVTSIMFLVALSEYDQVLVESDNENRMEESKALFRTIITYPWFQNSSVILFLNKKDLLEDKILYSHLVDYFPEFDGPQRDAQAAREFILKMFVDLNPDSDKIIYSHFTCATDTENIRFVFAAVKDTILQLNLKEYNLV

Gi = target: T3, Gi (Bos taurus, UniProt P63097); test: as above; format: biochemical, bovine; settings: 100 μM
T3 construct: made in house; host or cells: Sf9 insect cells (baculovirus); membranes used
Source text: (§3) Baculovirus transfer vectors harboring the genes for Gsα, Giα1 and β1γ2 were kindly provided by Dr. Tatsuya Haga (University of Tokyo, Tokyo, Japan). The cDNA for bovine Gsα (21) in pVL1392, bovine Giα1 (22) In pVL1392 and bovine β1γ2 (23) in pVL1393 were cotransfected with linearized baculovirus DNA (Pharmingen, San Diego, Calif., USA), and the resulted virus stocks were subjected to one round of plaque purification before generation of high-titer virus stocks. In the expression procedure, Sf9 cells at density of 2 million cells/ml in suspension culture were Infected with a ratio 2:1 of a versus βγ. Cells were harvested 48 h post-infection, washed in PBS and stored at −70° C. until membrane preparation.
(§4) Frozen pieces of blood vessels were mechanically pulverized. […] Until used, they were kept frozen in the concentration of 1-2 mg protein/ml as determined by the method of Lowry (Lowry, O. H., Rosenbrough, N.Y., Farr, A. L. & Randall, R. J. J. Biol. Chem. 193, 265-275 (1951)). […]
(§5) Incubation medium was standard TE-buffer, pH 7.5. […] Blank values were determined by the replacement of membrane solution with assay buffer. […] The radioactivity of the yielding radioactive phosphate was determined in Packard 3255 liquid scintillation counter.

Gs = target: T4, Gs (Bos taurus, UniProt P04896); test: as above; format: biochemical, bovine; settings: 100 μM
T4 construct: made in house; host or cells: Sf9 insect cells (baculovirus); membranes used
Source text: as §3, §4, §5

[3] = tested on: N2A mouse neuroblastoma cells; test: Cellular internalisation assay of fluorescein-labelled APP and PS peptides; format: cell-based; settings: 10 μM, 37°
Experimental: Mouse neuroblastoma cells, N2A, were cultivated in Dulbecco's minimal essential medium with Glutamax-I, supplemented with 10% (v/v) fetal bovine serum, penicillin (100 U/ml) and streptomycin (100 μg/ml).
The cells used for Internalisation were seeded out on round glass coverslips in 24well plates. One day post seeding, the cells were semi confluent, and the medium was changed to serum-free medium. The fluorescein-labelled peptides were added, with a final concentration of 10 μM. After 60 min of incubation at 37°, the cells were washed 3 times with 1 ml of Hepes-Krebbs-Ringer-(HKR) buffer and fixed with 3% paraformaldehyde solution in phosphate-buffered saline solution (PBS) for 10 minutes. The cells were then washed 3 times with 1 ml of HKR-buffer, and the coverslips were mounted and sealed for microscopy studies.
The cell type used for the internalisation assays with the fluorescein'tagged peptides was N2A mouse neuroblastoma cells. This cell-line is commonly used in association with Alzheimer's disease studies, and serves as a good model cell-line for these internalisation assays where peptides derived from proteins involved in Alzheimer's disease were examined. These Internalisation assays were performed at 37° C., therefore the internalisation by endocytosis cannot be excluded.

[4] = tested on: N2A mouse neuroblastoma cells; test: as above; format: cell-based
N2a cells = test: Cellular internalisation of M630 conjugated to fluorescein; format: cell-based; settings: 5 μM, 1 h, 37° C.
Experimental: FIG. 42. Cellular internalisation of M630 conjugated to fluorescein in N2a cells, visualised by confocal microscope. The cells were incubated for 1 h at 37° C. with a final peptide concentration of 5 μM.

Porcine coronary artery = test: Effect of M630 on porcine coronary artery
Experimental: CGRP receptor loop iC4, sequence 391-405 ([…]) was synthesised and tested at blood vessels as described for the ATLAR loop previously.
Porcine coronary artery was contracted by using KCl. After relaxation of the artery by washing, 50 μM M630 was applied. Contraction started after approximately 10 min and reached maximum in 15 to 20 min after application. […] The effect was reproducible and always very clearly observed. The lag-period of 10 min could be the time needed for the penetration of M630 into the cells.

Bowes and Caco-2 = test: PenMMP14 uptake in cells expressing MMP14; format: cell-based, human
Source text: FIG. 24. Another example of an Inactivated selCPP. PenMMP14 uptake in Bowes (A) and B)) and Caco-2 (C) and D)). The left column is uptake of fluorescein labelled peptide (A) and C)) and the […] with coumarine label (B) and D)).

YTA-2ps = tested on: T5, YTA-2ps
T5 sequence: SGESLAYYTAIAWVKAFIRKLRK

T4 sequence (P04896 whole entry): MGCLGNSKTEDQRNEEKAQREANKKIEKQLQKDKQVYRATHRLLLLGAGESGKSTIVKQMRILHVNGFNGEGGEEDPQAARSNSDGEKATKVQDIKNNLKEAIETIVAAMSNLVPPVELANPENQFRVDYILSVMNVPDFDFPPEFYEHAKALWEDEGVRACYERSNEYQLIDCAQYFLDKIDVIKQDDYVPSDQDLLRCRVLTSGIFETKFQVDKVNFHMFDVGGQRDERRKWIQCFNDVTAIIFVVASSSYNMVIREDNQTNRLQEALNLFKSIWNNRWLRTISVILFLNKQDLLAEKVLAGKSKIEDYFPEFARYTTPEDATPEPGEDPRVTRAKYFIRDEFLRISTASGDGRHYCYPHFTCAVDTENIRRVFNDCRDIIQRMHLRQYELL
T1 sequence (P09471 whole entry): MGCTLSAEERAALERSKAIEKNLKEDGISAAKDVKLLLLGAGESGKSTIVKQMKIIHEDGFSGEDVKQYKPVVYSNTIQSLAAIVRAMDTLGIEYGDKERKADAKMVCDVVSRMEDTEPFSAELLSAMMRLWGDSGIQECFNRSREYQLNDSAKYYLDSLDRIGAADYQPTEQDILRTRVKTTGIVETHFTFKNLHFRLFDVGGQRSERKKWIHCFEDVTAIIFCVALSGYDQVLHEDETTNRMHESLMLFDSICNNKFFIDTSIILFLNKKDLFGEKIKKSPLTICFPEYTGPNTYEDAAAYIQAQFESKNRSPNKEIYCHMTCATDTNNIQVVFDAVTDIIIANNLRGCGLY
T3 sequence (P63097 2-354 limits assumed): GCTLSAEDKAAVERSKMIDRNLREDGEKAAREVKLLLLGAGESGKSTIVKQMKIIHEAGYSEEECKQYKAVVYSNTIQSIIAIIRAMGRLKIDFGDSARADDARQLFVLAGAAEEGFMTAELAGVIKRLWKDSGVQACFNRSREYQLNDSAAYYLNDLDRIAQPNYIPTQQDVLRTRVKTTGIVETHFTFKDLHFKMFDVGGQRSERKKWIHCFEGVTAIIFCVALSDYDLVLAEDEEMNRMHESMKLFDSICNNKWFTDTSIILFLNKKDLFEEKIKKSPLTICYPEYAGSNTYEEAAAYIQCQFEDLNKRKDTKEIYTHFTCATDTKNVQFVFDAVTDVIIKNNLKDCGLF

GTPase activity (Go): small but significant activation
rate of binding of GTPγS [1]: dose-dependently increased
GTPase activity (G11): moderate inhibition
GTPase activity (Gi): small but significant activation
GTPase activity (Gs): seems not to be affected
Substance: FLGKKFKKYFLQLLK [Peptide M511]
blood vessel contraction compared with porcine artery (great cardiac vein): Virtually Identical effect
termination of contraction by washing [2]: could not be terminated by washing
blood vessel contraction ([2]; 16 μM): intense and long-lasting contraction
strength of contraction as % of maximal effect of potassium ion ([2]; 16 μM, comparable to 30 mM K+): approximately 50%
contraction force higher than that induced by 30 mM KCl ([2]; 100 mM M511 (so in the source)): about 40%
blood vessel contraction compared with porcine artery (human umbilical artery): Virtually Identical effect

rate of binding of GTPγS [1]: not active
Substance: KGKFQLYLKLKFKFL [Scrambled M511]
blood vessel contraction ([2]; 16 μM): did not cause any contraction

Substance: KKKQYTSIHHGVVEVD [APP (725-740)]
cellular localisation [3]: mostly to the cytosol
cellular internalisation ([3]; 60 min): increased fluorescence compared to the background
internalisation at 4° C. [4]: not internalised

Substance: VQAILRRNWNQYKIQ [Peptide M630]
cell membrane penetration (N2a cells): penetrates cell membranes by a non-endocytotic mechanism
effect on the contracted arteries (Porcine coronary artery): no effect
reversal of contraction by washing (Porcine coronary artery; 50 μM): Washing did not reverse the contraction
time to start of contraction (Porcine coronary artery; 50 μM): approximately 10 min

Substance: coum-DEEQERSEN-IRQIKIWFQNRRMKWK*K-amide [SelCPP2]
cellular uptake (Bowes and Caco-2): taken up in cells expressing MMP14

Substance: matrix metallo proteinase-2 (MMP-2)
cleavage of the peptide by the protease, checked by mass spectrometry (YTA-2ps): The correct cleavage of YTA-2 by MMP2 has also be confirmed by mass spectrometry (data not shown)
